In patent US20240124408A1 (Sanofi, priority 2020, published 2024):
Read-outs that look alike come from different tables or passages of the source.

Experiments:
[1] = target: T1, human TRPM8 (Homo sapiens, UniProt Q7Z2W7); experiment: In vitro human TRPM8 fluorescence calcium flux assay (recombinant CHO cells, Fluo4-AM, FDSS6000); assay type: cell-based; settings: recombinant CHO cells expressing human TRPM8; menthol-related EC50, normalized to 100 μM menthol
T1 construct: expressed in transfected cells; host or cells: CHO (p658 mammalian expression vector)
How it was run: (§1)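 CHO cells stably expressing pig or human TRPM8, loaded with 2 μM Fluo4-AM in HBSS/20 mM HEPES/0.1% BSA/2.5 mM probenecid for 1 h at RT. Intracellular calcium read kinetically for 3 min after compound addition. EC50 from sixteen-point curves, normalized to 100 μM menthol maximal response.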

[2] = target: T2, pig TRPM8 (Sus scrofa, UniProt F1SM15); experiment: In vitro pig TRPM8 fluorescence calcium flux assay (recombinant CHO cells, Fluo4-AM, FDSS6000); assay type: cell-based; settings: recombinant CHO cells expressing pig TRPM8; menthol-related EC50, normalized to 100 μM menthol
T2 construct: expressed in transfected cells; host or cells: CHO (pcDNA5/FRT/TO vector; hygromycin B and blasticidin selection)
How it was run: as §1

[3] = target: T1, human TRPM8; experiment: In vitro human TRPM8 automated patch-clamp assay (SyncroPatch 384PE, CHO cells); assay type: cell-based; settings: CHO cells expressing human TRPM8, 28° C.
How it was run: (§2)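 Whole-cell automated patch clamp on engineered CHO lines at 28 °C, held at −60 mV, with −80 to +80 mV ramps every 5 s; one compound concentration per well. Peak current minus pre-addition baseline was normalised to no-compound control and Emax, and EC50 was fitted; 200 μM menthol wells served as control.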

[4] = target: T2, pig TRPM8; experiment: In vitro pig TRPM8 automated patch-clamp assay (SyncroPatch 384PE, CHO cells); assay type: cell-based; settings: CHO cells expressing pig TRPM8, 28° C.
How it was run: as §2

[5] = system: Male castrated German Landrace pigs; experiment: In vivo assay: enhancement of swallowing in anesthetized pigs (manometry with pressure probe in the mouth); settings: Sus scrofa, anesthetized pig, dose per pig 10 mg, injected in 1 ml vehicle into the oral cavity
Experimental: For testing the efficacy of TRPM8 agonists for enhancing swallowing, experiment using the pig model can be conducted according to assay described below. The efficacy can be compared to a vehicle control.
Male castrated German Landrace pigs (weight range of 20 to 35 kg) were used. Anesthesia was induced by injecting 20 ml of a urethane solution (20 g/100 mL dissolved in saline) into an ear vein corresponding to a dose of around […]. Anesthesia was maintained by continuous infusion of 15-20 mL per hour of the urethane solution, which was infused into an epigastric vein, and additionally by infusion of Zoletil and Rompun (500 mg Zoletil is disssovled in 10 ml of Rompun 2%, then diluted 1:10 with saline and 3-5 mL per hour of this diluted solution. Bupivacain 0.5% JENAPHARM@ was injected for additional infiltration anesthesia. Anesthesia was monitored via pulsoximetry (ear) and regular reflex testing for pain. Body temperature was monitored and maintained by an infrared lamp.
Preparation of pigs: Swallowing responses were assessed by manometry with a pressure probe placed into the mouth of the pig. The pressure probe consisted of a plastic tube (diameter 3.3 mm) to which a small balloon was attached. The tube was advanced about 12-14 cm into the mouth related to the snout. The balloon was then inflated with air to yield a pressure of 20-30mbar (vehicle). Ideally a swallowing response with 1 ml of fluid raised this pressure by 20-50mbar which was then referred to as the swallowing pressure (the increment of this pre-set pressure in the inflated balloon after swallowing) to be further enhanced by an effective test drug.
The free end of the tube was connected to a differential pressure transducer MPX Type 399/2 (Hugo Sachs Elektronik-Harvard Apparatus) and a Hugo Sachs Plugsys-amplifier system. The biological signals were recorded by a Hugo Sachs Plugsys-amplifier system and continuously stored on a computer hard disk by an on line data acquisition and analysis system (Hem 4.2 Notocord Systems, Croissy-sur-Seine, France).
A second tube referred to as injection tube was placed dorsally to the manometer tube to enable the administration of the vehicle that induced the baseline swallowing activity, or of this same vehicle containing the test compound.
Induction and assessment of swallowing activity: 0.5h after anesthesia induction 1 ml of a fluid or the vehicle for the test drug was injected into the injection tube placed into the oral cavity. The number of swallows was counted and the highest-pressure increment was registered. Challenges with vehicle were repeated at intervals of 30 min until two consecutive vehicle challenges show an about equal swallowing response. The next challenge was the vehicle loaded with the test drug (otherwise same procedure). The efficacy of a compound to enhance swallowing as shown in Table 7 was expressed as the % increase in pressure and frequency of swallowing after administration of the compound compared to the pressure and frequency recorded for its vehicle administered just before.

[6] = frequency of swallowing compared with vehicle administered just before, read-out: % increase frequence vs vehicle
[7] = swallowing pressure compared with vehicle administered just before, read-out: % increase pressure vs vehicle

T2 sequence (F1SM15 1-1104): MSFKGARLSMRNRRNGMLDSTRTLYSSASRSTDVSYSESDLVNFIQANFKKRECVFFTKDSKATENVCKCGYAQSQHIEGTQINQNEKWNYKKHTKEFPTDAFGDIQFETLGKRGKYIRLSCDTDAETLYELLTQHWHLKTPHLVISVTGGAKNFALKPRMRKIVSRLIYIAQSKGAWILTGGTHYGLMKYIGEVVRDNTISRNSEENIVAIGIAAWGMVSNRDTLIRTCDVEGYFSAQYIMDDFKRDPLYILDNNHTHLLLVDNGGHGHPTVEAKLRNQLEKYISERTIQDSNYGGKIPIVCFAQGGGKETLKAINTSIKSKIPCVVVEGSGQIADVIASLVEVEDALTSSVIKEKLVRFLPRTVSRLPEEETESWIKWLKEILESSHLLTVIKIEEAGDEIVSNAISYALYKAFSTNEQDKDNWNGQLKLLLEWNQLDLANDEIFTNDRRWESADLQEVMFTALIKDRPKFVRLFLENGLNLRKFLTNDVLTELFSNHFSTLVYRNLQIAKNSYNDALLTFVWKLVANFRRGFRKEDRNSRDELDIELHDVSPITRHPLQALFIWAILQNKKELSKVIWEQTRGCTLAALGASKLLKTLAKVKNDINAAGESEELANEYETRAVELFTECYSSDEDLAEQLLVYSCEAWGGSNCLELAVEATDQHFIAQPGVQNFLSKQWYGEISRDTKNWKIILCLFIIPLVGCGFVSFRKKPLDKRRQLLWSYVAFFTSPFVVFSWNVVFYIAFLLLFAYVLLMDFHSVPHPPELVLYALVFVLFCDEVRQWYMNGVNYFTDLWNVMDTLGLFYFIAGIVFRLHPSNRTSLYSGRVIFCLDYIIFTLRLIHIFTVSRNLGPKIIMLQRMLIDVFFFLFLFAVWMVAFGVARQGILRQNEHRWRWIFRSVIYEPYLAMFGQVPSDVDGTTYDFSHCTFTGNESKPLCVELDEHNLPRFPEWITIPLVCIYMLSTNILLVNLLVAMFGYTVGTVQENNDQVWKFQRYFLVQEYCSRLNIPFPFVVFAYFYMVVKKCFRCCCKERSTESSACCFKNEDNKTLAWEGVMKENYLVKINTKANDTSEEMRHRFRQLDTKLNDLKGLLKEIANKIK
T1 sequence (Q7Z2W7 whole entry): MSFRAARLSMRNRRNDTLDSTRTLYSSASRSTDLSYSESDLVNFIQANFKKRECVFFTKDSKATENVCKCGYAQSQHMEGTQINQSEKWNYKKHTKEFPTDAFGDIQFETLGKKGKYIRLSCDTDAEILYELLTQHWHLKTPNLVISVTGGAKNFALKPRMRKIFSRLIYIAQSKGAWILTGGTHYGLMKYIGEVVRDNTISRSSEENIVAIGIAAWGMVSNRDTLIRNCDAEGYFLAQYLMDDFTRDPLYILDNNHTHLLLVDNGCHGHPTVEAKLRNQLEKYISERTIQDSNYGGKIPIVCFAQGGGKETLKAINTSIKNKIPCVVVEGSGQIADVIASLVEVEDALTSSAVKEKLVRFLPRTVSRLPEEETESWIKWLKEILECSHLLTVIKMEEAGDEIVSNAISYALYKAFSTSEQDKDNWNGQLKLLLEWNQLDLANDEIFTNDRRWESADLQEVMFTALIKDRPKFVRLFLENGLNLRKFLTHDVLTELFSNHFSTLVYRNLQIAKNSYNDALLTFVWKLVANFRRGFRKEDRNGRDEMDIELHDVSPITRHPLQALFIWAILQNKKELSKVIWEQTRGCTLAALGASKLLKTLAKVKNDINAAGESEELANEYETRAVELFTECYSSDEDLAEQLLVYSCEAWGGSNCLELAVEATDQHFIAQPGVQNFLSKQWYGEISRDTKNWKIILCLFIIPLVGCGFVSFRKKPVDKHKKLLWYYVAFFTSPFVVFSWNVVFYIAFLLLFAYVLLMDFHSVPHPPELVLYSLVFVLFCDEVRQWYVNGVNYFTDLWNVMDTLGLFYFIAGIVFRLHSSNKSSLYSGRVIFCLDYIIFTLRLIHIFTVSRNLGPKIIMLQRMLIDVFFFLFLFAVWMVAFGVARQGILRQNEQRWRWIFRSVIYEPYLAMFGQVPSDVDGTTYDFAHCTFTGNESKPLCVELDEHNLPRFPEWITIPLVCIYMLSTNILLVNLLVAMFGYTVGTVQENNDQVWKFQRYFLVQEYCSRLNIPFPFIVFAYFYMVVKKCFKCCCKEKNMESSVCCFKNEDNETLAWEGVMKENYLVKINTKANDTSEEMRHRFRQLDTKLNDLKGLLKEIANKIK

EC50 [1] [nM] | EC50 [2] [nM] | EC50 [3] [nM] | EC50 [4] [nM] | SMILES | change in vivo at 10 mg [5, 6] [%] | change in vivo at 10 mg [5, 7] [%]
0.4 | 0.4 | 140 | 71 | CC(C)[C@@H]1CC[C@@H](C)C[C@@]1(O)C(=O)NC[C@@H](N)c1ccccc1 [Example 50, (1S,2S,5R)—N-((2S)-amino-2-phenylethyl)-1-hydroxy-2-isopropyl-5-methylcyclohexane-1-carboxamide] | 100 | 63
25.2 | 34.5 | 3600 | 3840 | CC(C)[C@@H]1CC[C@@H](C)C[C@@]1(O)C(=O)NCCc1ccccc1C(=O)OCCO [Example 22, 2-hydroxyethyl 2-(2-((1S,2S,5R)-1-hydroxy-2-isopropyl-5-methylcyclohexane-1-carboxamido)ethyl) benzoate] | 500 | 182
27.7 | 25.2 | 1500 | 4250 | CC(C)[C@@H]1CC[C@@H](C)C[C@@]1(O)C(=O)NCCc1ccccc1OCC(N)=O [Example 81, (1S,2S,5R)—N-(2-(2-amino-2-oxoethoxy)phenethyl)-1-hydroxy-2-isopropyl-5-methyl cyclohexane-1-carboxamide] | 247 | 315
